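In this assay, cells in 96-well plates receive the compound at five concentrations for 48 hours. Endpoints are linearly interpolated between the surrounding concentrations. Abbreviation: GI50, concentration required for 50% inhibition of growth.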 The source made the active and inactive calls. Cut-off read from the data, not from the text of the source: active = GI50 up to about 1.1 µM and inactive = higher.
Experiments:
Experiment in all cases: NCI anticancer screen, dose series, 48 h
[1] = system: 786-0
[2] = system: A549
[3] = system: ACHN
[4] = system: BT-549
[5] = system: CAKI-1
[6] = system: COLO 205
[7] = system: DU-145
[8] = system: EKVX
[9] = system: HCC 2998
[10] = system: HCT-116
[11] = system: HCT-15
[12] = system: HL-60
[13] = system: HOP-62
[14] = system: HOP-92
[15] = system: HT-29
[16] = system: Hs-578T
[17] = system: IGROV-1
[18] = system: K562
[19] = system: KM12
[20] = system: LOX IMVI
[21] = system: M14
[22] = system: MCF7
[23] = system: MDA-MB-231
[24] = system: MDA-MB-435
[25] = system: MDA-N
[26] = system: MOLT-4
[27] = system: Malme-3M
[28] = system: NCI-H226
[29] = system: NCI-H23
[30] = system: NCI-H460
[31] = system: NCI-H522
[32] = system: NCI/ADR-RES
[33] = system: OVCAR-3
[34] = system: OVCAR-4
[35] = system: OVCAR-5
[36] = system: OVCAR-8
[37] = system: PC-3
[38] = system: RPMI-8226
[39] = system: RXF 393
[40] = system: SF-268
[41] = system: SF-295
[42] = system: SK-MEL-28
[43] = system: SK-MEL-2
[44] = system: SK-MEL-5
[45] = system: SK-OV-3
[46] = system: SN12C
[47] = system: SNB-19
[48] = system: SNB-75
[49] = system: SR
[50] = system: SW-620
[51] = system: T47D
[52] = system: TK-10
[53] = system: U-251
[54] = system: UACC-257
[55] = system: UACC-62
[56] = system: UO-31
[57] = system: A498
[58] = system: CCRF-CEM
[59] = system: SF-539

Measured: GI50

CCOC(=O)c1c(N)sc2c1CC(C)CC2 (configuration not stated)
41.8 µM: [11]
active: [12] 0.292 µM
inactive: [1] 23.4 µM | [2] 38.5 µM | [3] 39.9 µM | [4] 54.2 µM | [5] 49 µM | [6] 27.9 µM | [7] 67.5 µM | [8] 32.6 µM | [9] 19.7 µM | [10] 47.6 µM | [13] 52.5 µM | [14] 27.7 µM | [15] 22.4 µM | [16] 43.7 µM | [17] 57.4 µM | [18] 39.4 µM | [19] 41.5 µM | [20] 42.2 µM | [21] 26.8 µM | [22] 32.9 µM | [23] 33.4 µM | [24] 41.2 µM | [25] 47.5 µM | [26] 30.9 µM | [27] 38 µM | [28] 23.5 µM | [29] 63.7 µM | [30] 35.6 µM | [31] 18.4 µM | [32] 44.3 µM | [33] 46.1 µM | [34] 34.1 µM | [35] 55.3 µM | [36] 45.3 µM | [37] 29.4 µM | [38] 30 µM | [39] 18.6 µM | [40] 45.1 µM | [41] 45 µM | [42] 53.5 µM | [43] 31.9 µM | [44] 19.2 µM | [45] 47.6 µM | [46] 44.4 µM | [47] 31 µM | [48] 26.5 µM | [49] 28.6 µM | [50] 55.6 µM | [51] 32.5 µM | [52] 45.6 µM | [53] 42.4 µM | [54] 31.2 µM | [55] 51.2 µM | [56] 32.3 µM

COc1ccc(Oc2nc(C#CC(C)(C)O)nc(Oc3ccc(OC)cc3)n2)cc1
active: [12] 1.07 µM | [49] 0.625 µM
inactive: [57] 17.8 µM | [2] 15.1 µM | [3] 1.69 µM | [4] 14.9 µM | [5] 3.67 µM | [58] 1.43 µM | [6] 3.59 µM | [7] 2.62 µM | [8] 16 µM | [10] 2.82 µM | [13] 21.8 µM | [15] 3.3 µM | [16] 16.4 µM | [17] 5.45 µM | [18] 1.67 µM | [19] 14 µM | [20] 1.39 µM | [21] 2.2 µM | [22] 1.51 µM | [23] 2.88 µM | [24] 4.44 µM | [25] 8.55 µM | [26] 1.53 µM | [27] 16.2 µM | [29] 7.74 µM | [30] 16.7 µM | [31] 3.2 µM | [32] 18.9 µM | [33] 2.1 µM | [34] 1.79 µM | [35] 4.72 µM | [36] 3.76 µM | [37] 2.52 µM | [39] 1.39 µM | [40] 9.08 µM | [41] 16.7 µM | [59] 7.08 µM | [42] 4.9 µM | [43] 6.73 µM | [44] 14.5 µM | [45] 19.2 µM | [46] 13.9 µM | [47] 20 µM | [48] 15.1 µM | [50] 1.84 µM | [51] 4.53 µM | [52] 12.6 µM | [53] 3.82 µM | [54] 17.9 µM | [55] 11.6 µM | [56] 1.55 µM
1.34 µM: [11]

Cc1nc2c(=O)n(C)ncc2[nH]1
> 100 µM: [11]
inactive: [1] > 100 µM | [57] > 100 µM | [2] > 100 µM | [3] > 100 µM | [4] > 100 µM | [5] > 100 µM | [58] > 100 µM | [6] > 100 µM | [7] > 100 µM | [8] > 100 µM | [10] > 100 µM | [12] 33.4 µM | [13] > 100 µM | [15] > 100 µM | [16] 77.1 µM | [17] > 100 µM | [18] > 100 µM | [19] > 100 µM | [21] > 100 µM | [22] > 100 µM | [23] > 100 µM | [24] > 100 µM | [25] > 100 µM | [26] > 100 µM | [28] > 100 µM | [29] > 100 µM | [30] > 100 µM | [32] > 100 µM | [33] > 100 µM | [35] > 100 µM | [36] > 100 µM | [37] > 100 µM | [38] > 100 µM | [39] > 100 µM | [40] > 100 µM | [41] > 100 µM | [59] > 100 µM | [42] > 100 µM | [43] > 100 µM | [44] > 100 µM | [46] > 100 µM | [47] > 100 µM | [48] 22.6 µM | [49] > 100 µM | [50] > 100 µM | [51] > 100 µM | [52] > 100 µM | [53] > 100 µM | [54] > 100 µM | [55] > 100 µM | [56] > 100 µM

Source: ChEMBL document CHEMBL1201862, “PubChem BioAssay data set” (2004)
